Experimental data reported in ChEMBL document CHEMBL2062395, “Avicholic Acid: A Lead Compound from Birds on the Route to Potent TGR5 Modulators” (ACS Med Chem Lett, 2012).

Legend:
Albumin = Albumin (Homo sapiens, UniProt P02768); assay: Binding affinity to albumin by equilibrium dialysis; type: ADME; set-up: concentration or dose not given beside the values; conditions: isolated protein
[1] = Critical micelle concentration of the compound in 0.15 M NaCl water solution; type: physicochemical; conditions: buffer
[2] = 1-Octanol/water partition coefficient, log P of the compound by conventional shake-flask method; type: physicochemical
[3] = biological target: T1, G-protein coupled bile acid receptor 1 (Homo sapiens, UniProt Q8TDU6); assay: Agonist activity at TGR5 expressed in NCI-H716 cells assessed as cAMP level after 60 mins by FRET analysis; type: functional, cell-based
T1 sequence (Q8TDU6 whole entry): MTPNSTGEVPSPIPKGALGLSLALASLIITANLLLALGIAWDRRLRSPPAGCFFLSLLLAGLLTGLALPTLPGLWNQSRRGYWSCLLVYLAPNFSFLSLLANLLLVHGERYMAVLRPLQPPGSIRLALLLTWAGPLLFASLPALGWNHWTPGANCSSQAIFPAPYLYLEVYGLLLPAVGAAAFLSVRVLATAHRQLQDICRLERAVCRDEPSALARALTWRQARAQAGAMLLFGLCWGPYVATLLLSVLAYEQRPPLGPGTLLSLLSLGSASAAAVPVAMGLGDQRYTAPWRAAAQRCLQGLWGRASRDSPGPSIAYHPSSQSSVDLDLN

Bile acid receptor = biological target: T2, Bile acid receptor (Homo sapiens, UniProt Q96RI1); assay: Agonist activity at GST-tagged FXR-LBD using biotinylated-SRC-1 peptide as substrate preincubated with compound for 30 mins measured after 4 hrs; type: functional
T2 sequence (Q96RI1 whole entry): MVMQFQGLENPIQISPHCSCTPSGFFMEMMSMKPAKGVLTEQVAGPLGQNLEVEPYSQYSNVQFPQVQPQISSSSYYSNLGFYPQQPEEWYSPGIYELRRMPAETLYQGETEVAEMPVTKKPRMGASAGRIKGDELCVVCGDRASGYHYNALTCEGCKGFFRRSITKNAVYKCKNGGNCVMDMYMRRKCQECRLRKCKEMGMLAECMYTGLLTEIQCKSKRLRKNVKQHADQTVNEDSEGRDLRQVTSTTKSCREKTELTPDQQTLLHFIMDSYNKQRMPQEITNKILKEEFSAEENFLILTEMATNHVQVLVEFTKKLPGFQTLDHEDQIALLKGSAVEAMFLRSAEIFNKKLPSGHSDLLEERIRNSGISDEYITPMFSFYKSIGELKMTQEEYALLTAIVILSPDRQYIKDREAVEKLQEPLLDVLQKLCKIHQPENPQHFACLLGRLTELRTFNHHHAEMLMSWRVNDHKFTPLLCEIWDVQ

[4] = Aqueous solubility of the compound in 0.1 M HCl water at […] by HPLC-ES-MS/MS; type: physicochemical
Liver = assay: Drug metabolism in mouse liver assessed as taurine conjugate formation; type: ADME, tissue-based
[5] = 1-octanol/water, read-out: logP

Sequence of Albumin (P02768 whole entry): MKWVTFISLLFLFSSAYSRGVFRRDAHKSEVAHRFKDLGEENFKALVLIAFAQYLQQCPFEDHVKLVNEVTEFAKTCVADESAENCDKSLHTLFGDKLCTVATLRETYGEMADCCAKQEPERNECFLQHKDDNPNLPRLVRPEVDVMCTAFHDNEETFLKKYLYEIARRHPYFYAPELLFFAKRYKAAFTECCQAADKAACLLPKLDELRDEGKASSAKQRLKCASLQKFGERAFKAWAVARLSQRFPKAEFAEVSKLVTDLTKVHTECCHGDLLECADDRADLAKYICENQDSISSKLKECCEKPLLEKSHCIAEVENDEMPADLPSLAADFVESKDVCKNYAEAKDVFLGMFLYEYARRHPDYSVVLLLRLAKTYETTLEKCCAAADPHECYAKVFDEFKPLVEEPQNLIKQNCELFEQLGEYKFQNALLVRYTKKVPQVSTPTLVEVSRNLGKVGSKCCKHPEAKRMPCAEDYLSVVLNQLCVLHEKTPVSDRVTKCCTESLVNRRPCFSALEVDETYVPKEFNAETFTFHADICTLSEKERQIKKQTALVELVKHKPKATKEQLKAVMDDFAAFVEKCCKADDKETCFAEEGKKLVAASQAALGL

| Structure (SMILES) | Activity (Albumin) [%] | CMC [1] [mM] | logP [2, 5] | EC50 [3] [µM] | EC50 (Bile acid receptor) [µM] | solubility [4] [µM] | Drug metabolism (Liver) | logP ([2]; octanol/water) |
| --- | --- | --- | --- | --- | --- | --- | --- | --- |
| CC[C@H]1[C@@H](O)[C@@H]2[C@H](C[C@H](O)[C@]3(C)[C@@H]([C@H](C)C[C@H](C)C(=O)O)CC[C@@H]23)[C@@]2(C)CC[C@@H](O)C[C@@H]12 | 62 | 2 | 1.4 | – | – | – | – | – |
| CC[C@H]1[C@@H](O)[C@@H]2[C@H](CC[C@]3(C)[C@@H]([C@H](C)CCC(=O)[O-])[C@@H](O)C[C@@H]23)[C@@]2(C)CC[C@@H](O)C[C@@H]12.[Na+] | 83 | 5.9 | 1.6 | 0.65 | 11.5 | 120 | Active | – |
| C[C@H](CCC(=O)O)[C@H]1CC[C@H]2[C@@H]3[C@H](O)C[C@@H]4C[C@H](O)CC[C@]4(C)[C@H]3CC[C@]12C [CHENODIOL] | 93 | 3 | – | – | – | – | – | 2.2 |
| C[C@H](CCC(=O)[O-])[C@H]1[C@H](O)C[C@H]2[C@@H]3[C@H](O)C[C@@H]4C[C@H](O)CC[C@]4(C)[C@H]3CC[C@]12C.[Na+] [AVICHOLIC ACID SODIUM SALT] | 58 | 10 | 1.1 | 160 | > 100 | 188 | – | – |
| C[C@H](CCC(=O)O)[C@H]1CC[C@H]2[C@@H]3[C@H](O)C[C@@H]4C[C@H](O)CC[C@]4(C)[C@H]3C[C@H](O)[C@]12C [CHOLIC ACID] | 50 | 9.2 | – | – | – | – | – | – |
| C[C@H](CCC(=O)O)[C@H]1[C@@H](O)C[C@H]2[C@@H]3[C@H](O)C[C@@H]4C[C@H](O)CC[C@]4(C)[C@H]3CC[C@]12C | – | – | – | 25 | 55 | – | – | – |
| CC[C@H]1[C@@H](O)[C@@H]2[C@H](CC[C@]3(C)[C@@H]([C@H](C)CCC(=O)O)[C@H](O)C[C@@H]23)[C@@]2(C)CC[C@@H](O)C[C@@H]12 | – | – | – | 87 | 22 | – | – | – |
